Measured values as given in patent US20240352145A1, “EFFICACY OF ANTI-TROP-2-SN-38 ANTIBODY DRUG CONJUGATES FOR THERAPY OF TUMORS RELAPSED/REFRACTORY TO CHECKPOINT INHIBITORS” (Immunomedics, Inc., priority 2016, published 2024).
Values joined by “and” are separate entries in the source; they are usually repeats but may differ in a detail not shown here. Equal entries are not always repeated.

Tests used:
recombinant mouse Trop-2 = biological target: T1, recombinant mouse Trop-2 (Mus musculus, UniProt Q8BGV3); test: Trop-2 ELISA, murine; assay type: binding
T1 construct: purchased Sino Biological, Inc. 50922-M08H
T1 sequence (Q8BGV3 25-317): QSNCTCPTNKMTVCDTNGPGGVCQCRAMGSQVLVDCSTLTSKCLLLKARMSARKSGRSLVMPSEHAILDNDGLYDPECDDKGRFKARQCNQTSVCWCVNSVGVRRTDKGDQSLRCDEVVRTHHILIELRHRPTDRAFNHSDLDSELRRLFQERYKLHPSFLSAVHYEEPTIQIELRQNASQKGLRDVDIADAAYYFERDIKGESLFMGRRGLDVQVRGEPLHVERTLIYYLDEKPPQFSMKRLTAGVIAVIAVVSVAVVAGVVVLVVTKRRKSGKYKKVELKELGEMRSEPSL
Protocol: Trop-2 ELISA—Recombinant human Trop-2 with a His-tag (Sino Biological, Inc., Bejing, China; Cat #10428-H09H) and recombinant mouse Trop-2 with a His-Tag (Sino Biological, Inc., Cat #50922-M08H) were plated onto Ni-NTA Hissorb strips (Qiagen GmbH Cat #35023) at 1 μg for 1 h at room temperature. The plate was washed four times with PBS-Tween (0.05%) wash buffer. Serial dilutions of hRS7 were made in 1% BSA-PBS dilution buffer to a test range of 0.1 ng/mL to 10 μg/mL. The plates were then incubated for 2 h at room temperature before being washed four times followed by the addition of a peroxidase conjugated secondary antibody (goat anti-human, Fc fragment specific; Jackson Immunoresearch Cat #109-036-098). After a 45-min incubation, the plate was washed and a substrate solution (o-phenylenediamine dihydrochloride (OPD); Sigma, Cat #P828) added to all the wells. Plates were incubated in the dark for 15 min before the reaction was stopped with 4N sulfuric acid. The plates were read at 450 nm on Biotek ELX808 plate reader. Data were analyzed and graphed using Prism GraphPad Software (v4.03) (Advanced Graphics Software, Inc.; Encinitas, CA).

[1] = system: metastatic non-small cell lung cancer (NSCLC); test: Phase I/II, metastatic NSCLC cohort; assay type: in vivo, human
Protocol: The best responses by RESIST 1.1 criteria were determined (not shown).

Calu-3 = test: In vitro cytotoxicity, Calu-3
Excerpt: Cell lines, antibodies, and chemotherapeutics—All human cancer cell lines used in this study were purchased from the American Type Culture Collection.

BxPC-3 = test: Cytotoxicity (MTS), Example 7, BxPC-3; assay type: cell-based, human; details: BxPC-3, 96 h
Protocol: One day prior to adding the ADC, cells were harvested from tissue culture and plated into 96-well plates at 2000 cells per well. […] Plates were incubated at 37° C. for 96 h. […] Growth inhibition was measured as a percent of growth relative to untreated cells using Microsoft Excel and Prism software (non-linear regression to generate sigmoidal dose response curves which yield IC50-values).

[2] = Cardillo et al., 2011; cited from earlier work
[3] = system: triple-negative breast cancer
gastric cancer = test: Case, stage IV metastatic gastric cancer
urothelial cancer = test: Phase I/II, urothelial cancer cohort; assay type: in vivo, human
[4] = mouse, in vivo
[5] = system: metastatic epithelial tumors; test: Phase I trial of sacituzumab govitecan (25 patients); assay type: in vivo, human
Protocol: The trial was designed as a standard 3+3 Phase I design, starting at a dose of 8 mg/kg per injection, with dosages given weekly for 2 weeks in a 3-week treatment cycle.
Prior to the start of each infusion, most patients received acetaminophen, anti-histamines (H1 and H2 blockers), and dexamethasone. Prophylactic use of antiemetics or anti-diarrheal medications was prohibited. Therapy consisted of 2 consecutive doses given on days 1 and 8 of a 3-week treatment cycle, with the intent to allow patients to continue treatment for up to 8 cycles (i.e., 16 treatments) unless there was unacceptable toxicity or progression. Patients showing disease stabilization or response after 8 cycles could continue treatments.
The maximum tolerated dose (MTD) was judged on the patient's tolerance to the first treatment cycle.

[6] = update of on-going trial, 17 TNBC patients

Substance: hRS7 IgG
- cross-reactivity (recombinant mouse Trop-2): no cross-reactivity with the murine Trop-2

Substance: IMMU-132
- median PFS ([1]; 8 mg/kg): 3.4 months
- median PFS ([1]; 10 mg/kg): 3.8 months
- patients with PR or SD ([1]; 21/33): 64%
- PR, patients ([1]; 29 assessable patients, 8 or 10 mg/kg): 8
- median time to progression ([1]; in vivo): 9/4
- IC50 (Calu-3): 9.97 nM
- IC50 (BxPC-3): 5.8 nM
- very well tolerated human equivalent dose [2]: ~40 mg/kg
- decrease in sum of long diameter of target lesions ([3]; after 3 therapy cycles, 12 mg/kg then 9 mg/kg): 43%
- response ([3]; first response assessment): partial response by RECIST criteria
- tolerability (gastric cancer; 10 mg/kg): some mild nausea and diarrhea
- disease reduction from baseline by RECIST (gastric cancer; after another 5 courses): about 35%
- PR, patients (urothelial cancer; 11 assessable patients, 8 or 10 mg/kg): 6
- median time to progression (urothelial cancer; in vivo): 8.1 months
- clearance vs unconjugated IgG [4]: no significant difference in the clearance
- Delay/adjustment 1st cycle, patients ([5]; 8 mg/kg, 7 patients treated): 1
- Dose-limiting toxicity 1st cycle, patients ([5]; 8 mg/kg, 7 patients treated): 0
- patients with grade-3 diarrhea ([5]; 10 mg/kg dose level): 1
- Delay/adjustment 1st cycle, patients ([5]; 10 mg/kg, 6 patients treated): 0
- Dose-limiting toxicity 1st cycle, patients ([5]; 10 mg/kg, 6 patients treated): 0
- Delay/adjustment 1st cycle, patients ([5]; 12 mg/kg, 9 patients treated): 5
- Dose-limiting toxicity 1st cycle, patients ([5]; 12 mg/kg, 9 patients treated, listed as sacituzumab govitecan): 0/9 and 0
- Delay/adjustment 1st cycle, patients ([5]; 18 mg/kg, 3 patients treated): 2
- median time to progression ([5]; 24 patients): 3.6 months
- time to progression, range ([5]; 24 patients): 1-12.8 months
- febrile neutropenia, patients ([5]; 25 patients): 2
- long-term survival (15-20 months) ([5]; 25 patients): ~25%
- patients with >30% reduction of target lesions ([5]; 25 patients): 12%
- patients with SD ([5]; 25 patients): 60%
- free SN-38 as share of total SN-38, average ([5]; 28 30-min serum samples from 7 patients, HPLC): 2.91±0.91%
- infusion-related adverse events ([5]; 297 infusions over 2-3 h): no infusion-related adverse events
- adverse event possibly related to treatment ([5]; GC patient #9, 1 dose of 10 mg/kg): grade 3 febrile neutropenia
- progressed (PD) as best response, patients ([5]; RECIST 1.1): 7
- partial responses, patients ([5]; RECIST 1.1, 25 patients): 3
- stable disease as best response, patients ([5]; RECIST 1.1, 25 patients, listed as Sacituzumab govitecan): 15
- stable disease as best response, patients ([5]; RECIST 1.1, 25 patients, listed as sacituzumab govitecan): Fifteen
- tumor shrinkage ([5]; SCLC patient who failed prior topoisomerase I inhibitor therapy): 38%
- median time to progression ([5]; advanced pancreatic ductal cancer, N=7): 2.9 months
- tumor shrinkage ([5]; colon cancer patient who failed prior topoisomerase I inhibitor therapy): 13%
- intact conjugate in trough serum samples ([5]; drawn immediately before next dose): no sacituzumab govitecan could be detected
- antibody response to hRS7 IgG or SN-38 ([5]; multiple cycles for up to 12 months): no antibody response to the hRS7 IgG or SN-38 was detected
- reduction in target lesions ([5]; patient 10, CRC, 5 doses of 10 mg/kg): 23%
- maximum reduction in target lesions ([5]; patient 10, CRC, after 18 doses): 28%
- plasma CEA ([5]; patient 10, CRC, baseline 38.5 ng/mL): 1.6 ng/mL
- time to progression ([5]; patient 18, TNBC): 45 weeks
- reduction in target lesions ([5]; patient 18, TNBC, after 3 doses): 13%
- reduction in target lesions ([5]; patient 18, TNBC, after 16 doses): 19%
- period until progression ([5]; patient 20, HRPC, 34 treatments): 12.7 months
- period of SD ([5]; patient 25, esophageal cancer, 18 then 13.5 mg/kg): 30 weeks
- period of disease stabilization ([5]; patient #11, PDC): 15 weeks
- CA19-9 serum titer ([5]; patient #11, PDC, 10 mg/kg, after 8 doses, baseline 5880): 2840 units/mL
- SN-38 bound to the IgG ([5]; patient #25, 13.5 mg/kg): 96.8%
- free SN-38, average ([5]; patient #25, 13.5 mg/kg): 105.4 ± 47.7 ng/mL
- free SN-38G as share of total SN-38+SN-38G ([5]; patient #25, 13.5 mg/kg): 11.6%
- free SN-38G, average ([5]; patient #25, 13.5 mg/kg): 13.9 ± 4.1 ng/mL
- total SN-38, average ([5]; patient #25, 13.5 mg/kg, 11 peak acid-hydrolyzed samples): 3309.8 ± 601.8 ng/mL
- Free SN-38G ([5]; patient #25, 18 mg/kg): 26.2 ng/mL
- free SN-38 (non-hydrolyzed sample) ([5]; patient #25, 18 mg/kg): 155.2 ng/mL
- free SN-38G as share of total unbound SN-38+SN-38G ([5]; patient #25, 18 mg/kg): 14.4%
- free SN-38 as share of total ([5]; patient #25, 18 mg/kg): 3.0%
- total SN-38 (acid-hydrolyzed sample) ([5]; patient #25, 18 mg/kg): 5,089 ng/mL
- SN-38G as share of free SN-38 levels in serum ([5]; patients): 20-40%
- median time to progression ([5]; patients with SD or PR (N=18)): 4.1 months
- time to progression, range ([5]; patients with SD or PR (N=18)): 2.6-12.8 months
- patients with response or disease stabilization ([5]; patients with prior topoisomerase I inhibitor): 7 of 9
- SN-38 in serum bound to IgG ([5]; peak samples, 30 min after infusion): > 96%
- time to progression from onset of therapy ([5]; responder with SCLC): 2.9 months
- time to progression from onset of therapy ([5]; responder with TNBC): 4.3 months
- time to progression from onset of therapy ([5]; responder with colon cancer): 7.1 months
- reduction of target lesions ([5]; two of nine patients with prior topoisomerase-I inhibitor therapy, listed as sacituzumab govitecan): 28% and 38%
- clinical benefit rate (PR+SD≥6 months) [5, 6]: 46%
- overall response rate (PR) [5, 6]: 29%
